Experimental data taken from ChEMBL document CHEMBL1201862, “PubChem BioAssay data set” (2004).
The source made the active and inactive calls.

Experiments:
[1] = test system: Streptococcus sp. 'group A'; test: growth inhibition of control SK(-) GAS strain, dose response, counter-screen for streptokinase expression inhibitor project, luminescence, kanamycin, BacTiterGlo, confirmation (AID 1900); type: functional, organism-based
Streptokinase A = biological target: T1, Streptokinase A (Streptococcus pyogenes serotype M1, UniProt P10520); test: S. pyogenes streptokinase expression inhibitors, potency, dose response, plasminogen activation absorbance, OD405 (AID 1914); type: functional, Streptococcus pyogenes M1 GAS;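 also: secreted streptokinase activity via plasminogen activation per viability signal from cell pellet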
T1 sequence (P10520 whole entry): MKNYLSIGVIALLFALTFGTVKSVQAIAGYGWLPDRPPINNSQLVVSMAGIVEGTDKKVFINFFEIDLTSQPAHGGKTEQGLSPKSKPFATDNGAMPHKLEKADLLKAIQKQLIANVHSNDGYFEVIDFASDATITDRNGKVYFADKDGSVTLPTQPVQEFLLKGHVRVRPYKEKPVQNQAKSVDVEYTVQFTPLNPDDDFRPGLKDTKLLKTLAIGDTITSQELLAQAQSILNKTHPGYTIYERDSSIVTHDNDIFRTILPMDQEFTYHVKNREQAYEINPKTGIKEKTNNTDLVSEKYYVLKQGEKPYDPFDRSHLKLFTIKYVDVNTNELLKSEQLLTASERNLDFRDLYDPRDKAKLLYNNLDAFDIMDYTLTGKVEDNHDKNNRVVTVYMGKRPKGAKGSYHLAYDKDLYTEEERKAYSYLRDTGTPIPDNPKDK

[2] = microbe, parasite or virus in culture; type: functional; conditions: Mycobacterium tuberculosis
Streptococcus = test: Group A Streptococcus viability loss, dose response, counter-screen for streptokinase expression inhibitor project, luminescence, BacTiterGlo (AID 1915); type: functional, organism-based;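 also: potency for reduction of bacterial viability or growth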
[3] = THP-1 cell cytotoxicity, dose response, cytotoxicity control for non-replicating M. tuberculosis project (AID 489025); type: functional
[4] = HepG2 cell cytotoxicity, dose response, cytotoxicity control for non-replicating M. tuberculosis project (AID 489018); type: functional; conditions: Mycobacterium tuberculosis
[5] = Vero E6 cell cytotoxicity, dose response, cytotoxicity control for non-replicating M. tuberculosis project, secondary assay (AID 492998); type: functional, VeroE6; conditions: Vero C1008
cells = type: functional
[6] = biological target: Voltage-dependent T-type calcium channel subunit alpha-1H (Homo sapiens, UniProt O95180); type: functional;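 also: channel activity triggered by adding a high calcium stimulation buffer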
Sequence of Voltage-dependent T-type calcium channel subunit alpha-1H (O95180 whole entry): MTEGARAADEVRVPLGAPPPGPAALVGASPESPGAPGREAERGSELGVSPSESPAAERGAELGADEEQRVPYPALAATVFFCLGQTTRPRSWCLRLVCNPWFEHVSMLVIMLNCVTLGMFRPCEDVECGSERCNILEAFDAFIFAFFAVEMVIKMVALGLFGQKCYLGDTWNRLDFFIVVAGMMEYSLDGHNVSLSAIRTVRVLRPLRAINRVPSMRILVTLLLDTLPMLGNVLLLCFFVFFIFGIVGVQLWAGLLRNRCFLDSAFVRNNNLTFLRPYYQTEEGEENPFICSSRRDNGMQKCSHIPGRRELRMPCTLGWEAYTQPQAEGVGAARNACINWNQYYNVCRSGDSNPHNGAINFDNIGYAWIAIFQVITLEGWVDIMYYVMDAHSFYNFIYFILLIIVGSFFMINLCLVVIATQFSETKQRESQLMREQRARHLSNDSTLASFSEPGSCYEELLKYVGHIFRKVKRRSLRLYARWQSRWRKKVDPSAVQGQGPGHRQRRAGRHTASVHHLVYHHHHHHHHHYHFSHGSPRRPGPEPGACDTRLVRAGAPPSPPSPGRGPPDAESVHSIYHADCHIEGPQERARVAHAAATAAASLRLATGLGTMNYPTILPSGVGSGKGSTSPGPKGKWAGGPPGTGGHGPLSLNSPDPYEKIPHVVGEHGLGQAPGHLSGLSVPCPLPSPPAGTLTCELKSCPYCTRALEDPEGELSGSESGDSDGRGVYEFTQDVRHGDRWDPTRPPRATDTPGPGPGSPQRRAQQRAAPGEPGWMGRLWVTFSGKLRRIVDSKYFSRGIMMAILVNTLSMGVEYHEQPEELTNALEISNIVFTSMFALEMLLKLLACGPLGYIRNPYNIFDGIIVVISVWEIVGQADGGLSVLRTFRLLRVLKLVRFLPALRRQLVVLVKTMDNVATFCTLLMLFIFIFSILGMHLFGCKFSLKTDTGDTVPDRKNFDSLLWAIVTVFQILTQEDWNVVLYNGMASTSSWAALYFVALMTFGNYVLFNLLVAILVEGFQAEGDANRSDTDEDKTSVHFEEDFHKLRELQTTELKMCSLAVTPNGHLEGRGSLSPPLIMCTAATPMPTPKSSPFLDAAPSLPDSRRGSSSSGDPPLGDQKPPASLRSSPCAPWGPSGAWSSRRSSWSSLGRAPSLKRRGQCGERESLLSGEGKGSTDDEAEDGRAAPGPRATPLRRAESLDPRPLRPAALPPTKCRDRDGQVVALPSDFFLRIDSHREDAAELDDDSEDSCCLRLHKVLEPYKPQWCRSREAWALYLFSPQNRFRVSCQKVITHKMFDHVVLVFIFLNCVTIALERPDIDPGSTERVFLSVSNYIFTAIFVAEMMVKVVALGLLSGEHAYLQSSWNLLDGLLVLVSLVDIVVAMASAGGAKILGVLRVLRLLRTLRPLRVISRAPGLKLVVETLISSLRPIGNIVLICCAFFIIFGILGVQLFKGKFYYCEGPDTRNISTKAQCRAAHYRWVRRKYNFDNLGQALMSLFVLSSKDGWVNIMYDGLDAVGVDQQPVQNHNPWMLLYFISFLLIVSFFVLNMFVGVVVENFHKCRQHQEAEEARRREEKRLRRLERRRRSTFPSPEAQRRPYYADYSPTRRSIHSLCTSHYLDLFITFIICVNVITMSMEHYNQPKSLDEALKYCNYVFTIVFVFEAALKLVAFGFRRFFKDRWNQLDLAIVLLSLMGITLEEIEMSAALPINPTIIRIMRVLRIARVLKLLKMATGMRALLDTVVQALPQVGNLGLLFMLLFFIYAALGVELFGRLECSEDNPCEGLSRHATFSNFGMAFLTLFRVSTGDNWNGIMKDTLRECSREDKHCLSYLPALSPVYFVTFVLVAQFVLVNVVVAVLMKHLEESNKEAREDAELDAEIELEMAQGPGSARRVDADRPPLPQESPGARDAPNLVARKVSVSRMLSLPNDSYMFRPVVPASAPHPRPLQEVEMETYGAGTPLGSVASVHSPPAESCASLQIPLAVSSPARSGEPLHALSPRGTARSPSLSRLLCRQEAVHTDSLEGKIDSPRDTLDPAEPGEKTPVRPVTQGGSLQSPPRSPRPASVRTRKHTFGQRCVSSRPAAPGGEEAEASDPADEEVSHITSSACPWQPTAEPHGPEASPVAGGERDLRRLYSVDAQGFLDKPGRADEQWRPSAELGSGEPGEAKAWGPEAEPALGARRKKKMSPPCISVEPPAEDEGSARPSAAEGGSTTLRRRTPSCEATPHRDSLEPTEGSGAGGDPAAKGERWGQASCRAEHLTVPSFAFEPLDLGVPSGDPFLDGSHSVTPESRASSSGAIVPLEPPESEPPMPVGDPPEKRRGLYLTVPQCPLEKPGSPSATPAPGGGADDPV

Aminopeptidase N = biological target: T2, Aminopeptidase N (Plasmodium falciparum FcB1/Columbia, UniProt O96935); test: P. falciparum M1AAP inhibitors, biochemical, fluorogenic H-Leu-NHMec substrate, 1536-well (AID 1445); design: species or system Plasmodium falciparum 3D7, 3D7
T2 sequence (O96935 whole entry): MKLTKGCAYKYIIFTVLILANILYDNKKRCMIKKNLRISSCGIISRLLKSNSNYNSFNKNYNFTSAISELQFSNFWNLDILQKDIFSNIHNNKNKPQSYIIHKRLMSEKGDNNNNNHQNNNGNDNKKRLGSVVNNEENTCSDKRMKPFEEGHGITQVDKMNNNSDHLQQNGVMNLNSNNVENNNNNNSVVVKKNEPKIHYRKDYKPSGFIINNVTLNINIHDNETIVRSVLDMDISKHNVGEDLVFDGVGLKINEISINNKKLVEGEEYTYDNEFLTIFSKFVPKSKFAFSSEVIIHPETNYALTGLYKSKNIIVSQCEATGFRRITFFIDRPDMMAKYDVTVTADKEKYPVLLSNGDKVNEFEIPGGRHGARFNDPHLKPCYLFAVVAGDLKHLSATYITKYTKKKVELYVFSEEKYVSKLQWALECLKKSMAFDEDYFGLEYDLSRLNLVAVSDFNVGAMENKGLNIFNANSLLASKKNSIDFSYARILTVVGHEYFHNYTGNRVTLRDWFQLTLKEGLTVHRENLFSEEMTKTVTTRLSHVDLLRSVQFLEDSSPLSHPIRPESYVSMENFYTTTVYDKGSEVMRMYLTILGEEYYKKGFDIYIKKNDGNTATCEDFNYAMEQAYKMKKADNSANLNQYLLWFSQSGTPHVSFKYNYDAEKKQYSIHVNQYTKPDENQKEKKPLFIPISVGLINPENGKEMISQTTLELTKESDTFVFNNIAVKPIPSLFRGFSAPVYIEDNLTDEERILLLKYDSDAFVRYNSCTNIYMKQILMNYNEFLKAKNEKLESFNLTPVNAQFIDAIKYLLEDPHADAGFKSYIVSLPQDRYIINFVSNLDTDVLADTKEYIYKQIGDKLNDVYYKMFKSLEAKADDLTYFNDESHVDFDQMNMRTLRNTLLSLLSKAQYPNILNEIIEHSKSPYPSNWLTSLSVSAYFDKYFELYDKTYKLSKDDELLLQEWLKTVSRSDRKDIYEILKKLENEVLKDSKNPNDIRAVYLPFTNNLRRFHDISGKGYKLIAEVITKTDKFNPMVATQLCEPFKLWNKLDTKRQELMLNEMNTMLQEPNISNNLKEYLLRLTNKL

[7] = Luminescence Cell-Based Dose Retest to Confirm Inhibitors of Cancer Stem Cells. [Related pubchem assays (depositor defined):AID2717, AID2721]; type: functional; conditions: Homo sapiens
Protein skinhead-1 = biological target: T3, Protein skinhead-1 (Caenorhabditis elegans, UniProt P34707); type: functional
T3 sequence (P34707 whole entry): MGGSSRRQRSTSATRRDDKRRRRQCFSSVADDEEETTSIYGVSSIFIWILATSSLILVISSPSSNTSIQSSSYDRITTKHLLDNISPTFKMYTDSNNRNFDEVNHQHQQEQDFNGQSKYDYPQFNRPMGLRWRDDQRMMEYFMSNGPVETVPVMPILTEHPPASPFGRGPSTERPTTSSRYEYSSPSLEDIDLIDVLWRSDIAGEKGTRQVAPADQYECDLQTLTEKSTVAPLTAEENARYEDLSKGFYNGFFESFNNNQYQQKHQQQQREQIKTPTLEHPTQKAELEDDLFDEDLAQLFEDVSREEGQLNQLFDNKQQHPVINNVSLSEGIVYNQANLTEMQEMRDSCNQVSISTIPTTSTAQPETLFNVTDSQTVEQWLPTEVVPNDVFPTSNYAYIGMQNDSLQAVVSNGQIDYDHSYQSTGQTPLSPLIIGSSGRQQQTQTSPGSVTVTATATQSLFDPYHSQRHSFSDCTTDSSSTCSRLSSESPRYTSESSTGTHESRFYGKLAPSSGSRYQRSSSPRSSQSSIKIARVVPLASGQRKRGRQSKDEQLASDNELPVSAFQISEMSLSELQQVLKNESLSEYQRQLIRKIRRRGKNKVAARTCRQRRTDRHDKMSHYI

Cytochrome P450 2C9 = Cytochrome P450 2C9 (Homo sapiens, UniProt P11712)
Sequence of Cytochrome P450 2C9 (P11712 whole entry): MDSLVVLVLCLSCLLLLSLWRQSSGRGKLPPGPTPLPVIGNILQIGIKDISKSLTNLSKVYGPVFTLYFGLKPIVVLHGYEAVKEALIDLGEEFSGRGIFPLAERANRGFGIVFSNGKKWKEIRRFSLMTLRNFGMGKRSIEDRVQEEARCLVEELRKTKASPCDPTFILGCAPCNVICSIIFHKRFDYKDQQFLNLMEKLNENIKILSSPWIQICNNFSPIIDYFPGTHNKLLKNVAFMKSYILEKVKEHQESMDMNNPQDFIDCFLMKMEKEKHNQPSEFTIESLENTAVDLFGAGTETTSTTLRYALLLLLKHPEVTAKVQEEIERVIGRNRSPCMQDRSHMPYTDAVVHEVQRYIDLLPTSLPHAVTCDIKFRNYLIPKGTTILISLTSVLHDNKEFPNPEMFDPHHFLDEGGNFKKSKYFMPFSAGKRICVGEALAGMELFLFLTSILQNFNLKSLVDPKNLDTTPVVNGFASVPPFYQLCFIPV

Cytochrome P450 2C19 = Cytochrome P450 2C19 (Homo sapiens, UniProt P33261); test: Cytochrome panel assay with activity outcomes. Panel member name: p450-cyp2c19 Compounds with AC50 equal or less than 10 uM are considered active; type: functional
Sequence of Cytochrome P450 2C19 (P33261 whole entry): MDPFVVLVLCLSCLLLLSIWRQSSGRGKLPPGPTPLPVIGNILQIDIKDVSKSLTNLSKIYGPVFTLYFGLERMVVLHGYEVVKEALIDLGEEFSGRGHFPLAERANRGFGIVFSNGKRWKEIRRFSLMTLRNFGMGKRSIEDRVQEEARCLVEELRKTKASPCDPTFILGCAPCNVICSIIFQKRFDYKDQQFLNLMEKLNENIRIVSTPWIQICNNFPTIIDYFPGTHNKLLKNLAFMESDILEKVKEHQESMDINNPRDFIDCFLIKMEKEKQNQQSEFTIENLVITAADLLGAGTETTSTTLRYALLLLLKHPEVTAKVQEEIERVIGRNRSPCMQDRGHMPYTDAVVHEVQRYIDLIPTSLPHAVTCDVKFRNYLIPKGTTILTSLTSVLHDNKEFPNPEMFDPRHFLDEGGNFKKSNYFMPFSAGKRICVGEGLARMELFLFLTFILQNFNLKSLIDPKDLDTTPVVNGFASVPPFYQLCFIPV

Cytochrome P450 1A2 = biological target: T4, Cytochrome P450 1A2 (Homo sapiens, UniProt P05177);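 also: PubChem cytochrome P450 panel assay, CYP1A2 panel member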
T4 sequence (P05177 whole entry): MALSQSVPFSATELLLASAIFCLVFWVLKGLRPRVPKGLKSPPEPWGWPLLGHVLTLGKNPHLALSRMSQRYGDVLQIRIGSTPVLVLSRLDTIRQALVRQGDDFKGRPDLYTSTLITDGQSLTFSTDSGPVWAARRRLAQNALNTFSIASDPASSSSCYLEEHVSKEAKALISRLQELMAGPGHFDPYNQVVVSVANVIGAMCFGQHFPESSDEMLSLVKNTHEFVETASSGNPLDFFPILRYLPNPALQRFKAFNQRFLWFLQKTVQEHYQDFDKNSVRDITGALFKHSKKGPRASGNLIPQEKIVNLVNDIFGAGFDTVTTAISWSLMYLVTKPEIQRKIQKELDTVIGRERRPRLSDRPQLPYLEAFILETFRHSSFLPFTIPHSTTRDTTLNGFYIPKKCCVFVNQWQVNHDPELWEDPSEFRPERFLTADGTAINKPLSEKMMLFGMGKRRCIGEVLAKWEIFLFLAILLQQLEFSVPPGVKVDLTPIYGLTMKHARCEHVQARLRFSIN

Large T antigen = Large T antigen (Simian virus 40, UniProt P03070); type: functional, Betapolyomavirus macacae;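 also: Confirmatory-stage PubChem screen for compounds that inhibit SV40 T antigen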
Sequence of Large T antigen (P03070 whole entry): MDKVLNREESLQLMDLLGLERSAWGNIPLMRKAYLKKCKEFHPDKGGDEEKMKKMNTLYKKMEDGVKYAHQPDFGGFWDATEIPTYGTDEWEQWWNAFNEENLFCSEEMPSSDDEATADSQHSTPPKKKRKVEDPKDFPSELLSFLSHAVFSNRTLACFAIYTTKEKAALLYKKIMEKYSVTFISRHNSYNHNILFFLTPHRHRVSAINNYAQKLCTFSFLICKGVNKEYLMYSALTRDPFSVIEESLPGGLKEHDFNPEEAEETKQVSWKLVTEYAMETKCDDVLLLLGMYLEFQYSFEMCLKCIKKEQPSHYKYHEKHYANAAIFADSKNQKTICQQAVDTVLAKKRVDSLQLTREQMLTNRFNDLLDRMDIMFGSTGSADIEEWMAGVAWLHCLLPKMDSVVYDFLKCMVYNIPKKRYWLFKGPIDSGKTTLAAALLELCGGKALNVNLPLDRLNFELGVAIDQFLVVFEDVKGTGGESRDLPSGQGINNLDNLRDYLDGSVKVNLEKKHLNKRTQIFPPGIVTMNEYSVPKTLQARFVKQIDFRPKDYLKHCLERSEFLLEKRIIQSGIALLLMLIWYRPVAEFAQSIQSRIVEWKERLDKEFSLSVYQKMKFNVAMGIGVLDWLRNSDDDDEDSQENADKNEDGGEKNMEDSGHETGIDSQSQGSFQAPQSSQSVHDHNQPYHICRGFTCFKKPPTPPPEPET

Leucine aminopeptidase = biological target: T5, Leucine aminopeptidase (Plasmodium falciparum 3D7, UniProt Q8IL11); test: P. falciparum M17LAP inhibitors, primary screen, biochemical, fluorogenic H-Leu-NHMec substrate, 1536-well (AID 1619); type: functional
T5 sequence (Q8IL11 whole entry): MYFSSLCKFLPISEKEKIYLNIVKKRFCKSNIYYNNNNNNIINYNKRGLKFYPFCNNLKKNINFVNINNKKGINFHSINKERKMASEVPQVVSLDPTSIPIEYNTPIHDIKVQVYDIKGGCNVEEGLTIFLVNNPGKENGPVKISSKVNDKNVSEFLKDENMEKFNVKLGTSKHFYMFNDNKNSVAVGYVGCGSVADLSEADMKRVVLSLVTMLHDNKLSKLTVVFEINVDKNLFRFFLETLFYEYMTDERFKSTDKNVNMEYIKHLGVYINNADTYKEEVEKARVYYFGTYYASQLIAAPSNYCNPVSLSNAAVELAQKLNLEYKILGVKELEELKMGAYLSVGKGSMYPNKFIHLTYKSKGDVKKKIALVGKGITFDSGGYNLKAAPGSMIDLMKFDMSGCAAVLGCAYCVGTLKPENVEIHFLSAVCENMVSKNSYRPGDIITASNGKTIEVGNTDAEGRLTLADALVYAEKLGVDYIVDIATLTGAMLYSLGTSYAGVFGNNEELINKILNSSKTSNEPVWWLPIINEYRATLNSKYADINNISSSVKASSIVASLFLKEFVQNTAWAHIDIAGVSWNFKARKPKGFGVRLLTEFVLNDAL

Fatty acid synthase [8] = biological target: T6, Fatty acid synthase (Homo sapiens, UniProt P49327); test: FAS thioesterase domain inhibitors, dose response, biochemical, endpoint fluorescence intensity, uHTS hits (AID 624327); type: functional;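 also: fluorescence from hydrolysis of an O-methyl fluorescein acyl ester substrate by the enzyme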
Fatty acid synthase [9] = biological target: T6, Fatty acid synthase; test: FAS thioesterase domain inhibitors, dose response, biochemical, kinetic fluorescence intensity (AID 624326); type: functional;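 also: rate of fluorescence rise from hydrolysis of a fluorogenic O-methyl fluorescein ester substrate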
[10] = inhibitors of intracellular T. cruzi replication, confirmation, NIH3T3 host cells, beta-gal luminescence (AID 2044); type: functional, cell-based;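 also: intracellular parasites grown in NIH/3T3 mouse fibroblasts as host cells; luminescent beta-galactosidase reporter signal from transgenic T. cruzi replicating inside host cells; inhibitors lower the luminescence signal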
[11] = cytotoxicity toward NIH3T3 fibroblasts, dose response, counter-screen, cell-based, ATP luminescence, mouse fibroblasts (AID 2010); type: functional;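 also: cells exposed to compound for about 90 hours before reading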

Cc1cc(NC(=O)c2sccc2C)n(-c2nc3ccccc3[nH]2)n1
EC50 [1]: 3.9 µM (active)
EC50 (Streptokinase A): > 150 µM (not active)
CC50 [2]: 28.5 µM (active)
EC50 (Streptococcus): 5.49 µM (active)
CC50 [3]: > 40 µM (active)
CC50 [4]: > 20 µM (active)
CC50 [5]: 12.8 µM (active)
IC50 (cells): 4.09 µM (active)

O=C(CSc1nnc(-c2ccc(Cl)cc2)n1Cc1ccco1)NCc1ccc2c(c1)OCO2
EC50 [6]: 1.11 µM (active)

CCC1=NN2C(=N)/C(=C/c3c(C)nn(-c4ccccc4)c3Cl)C(=O)N=C2S1
IC50 (Aminopeptidase N): 46.1 µM (active)
AC50 [7]: 78.8 µM (active)

CCCCCCCC(=O)N/N=C(\C)c1ccc(O)cc1O
CC50 [3]: 20 µM (active)
CC50 [4]: 20 µM (active)
CC50 [5]: 12.6 µM (active)

CCn1c(SCC(=O)NC2CCCCC2)nnc1-c1cc2cccc(OC)c2o1
IC50 (Protein skinhead-1): > 100 µM (inactive)
AC50 (Cytochrome P450 2C9): inconclusive

Nc1nc(S)nc(O)c1/N=N\c1c(Br)cc(S(N)(=O)=O)cc1Br
AC50 (Cytochrome P450 2C19): inconclusive
AC50 (Cytochrome P450 1A2): 3.16 µM (inconclusive)
AC50 (Cytochrome P450 2C9): inconclusive

Cc1ccc(-c2n[nH]c3c2C(c2cccc(O)c2)N(c2ccc(C(=O)O)cc2)C3=O)cc1 (configuration not stated)
IC50 (Aminopeptidase N): 36.6 µM (active)

Cc1cccc(C)c1NC(=O)CSc1nnc(-c2ccccc2)n1Cc1ccc2c(c1)OCO2
EC50 [6]: 5.4 µM (active)

C[C@@H](NC(=O)/C(C#N)=C/c1ccc(O)c(O)c1)c1ccccc1
IC50 (Large T antigen): 7.28 µM (active)
AC50 (Cytochrome P450 2C19; read-out: AC50): 39.8 µM (inconclusive)
AC50 (Cytochrome P450 2C9): inconclusive

CC(Sc1nnnn1-c1ccccc1)C(=O)Nc1ccc(Cl)cn1 (configuration not stated)
EC50 [6]: 6.14 µM (active)

Cn1c(Oc2ccccc2)c(C=O)c2ccccc21
AC50 (Cytochrome P450 2C9): inconclusive

COc1ccc(/C=N/NC(=O)CSc2nnc(O)nc2O)cc1
IC50 (Leucine aminopeptidase): 7.36 µM (active)
IC50 (Aminopeptidase N): 29 µM (active)

O=S(=O)(c1ccc(Oc2ccc(Cl)cc2)c(S(=O)(=O)N2CCCCC2)c1)N1CCCCC1
EC50 [6]: 2.28 µM (active)

CCn1c(NC(=O)c2nn(C)cc2Br)nc2ccccc21
CC50 [2]: > 40 µM (active)
CC50 [3]: > 40 µM (active)
CC50 [4]: > 20 µM (active)
CC50 [5]: > 20 µM (active)
IC50 (cells): 5.5 µM (active)

CC(C)NS(=O)(=O)c1ccc(CCC(=O)NCc2ccc3c(c2)OCO3)cc1
IC50 (Aminopeptidase N): 33.6 µM (active)

C=CCn1cc(C(=O)NCc2ccco2)c(=O)c2cc(S(=O)(=O)N3CCCCCC3)ccc21
EC50 [6]: 6.32 µM (active)
IC50 (Fatty acid synthase [8]): 6.69 µM (active)
IC50 (Fatty acid synthase [9]): 7.26 µM (active)

Cc1c(Cl)cccc1NC(=O)c1nc(C)n(-c2cc(OC(C)C)c(Cl)cc2Cl)n1
EC50 [10]: 2.77 µM (active)
EC50 [11]: > 60 µM (not active)
EC50 [6]: 7.19 µM (active)

CCC(=O)Nc1cc2c(cc1C(=O)c1ccccc1)OCCO2
AC50 (Cytochrome P450 2C9): inconclusive
